In patent publication US8071768B2, “Alkylquinoline and alkylquinazoline kinase modulators” (Janssen Pharmaceutica, N.V., priority 2005, dated 2011):

Target: T1, TrkB (Homo sapiens, UniProt Q16620)
T1 construct: purchased Upstate 14-507M
Experiment: Trk B Fluorescence Polarization Kinase Assay
Type: biochemical
Settings: uncertainty ±10%
How it was run: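 The TrkB kinase reaction (50 nM enzyme, 20 ug/mL poly Glu4Tyr, 150 uM ATP, 5 mM MgCl2, 1% DMSO) ran 30 minutes at room temperature and was stopped with EDTA. Phosphorylation was detected by fluorescence-polarization displacement of a fluorescein phosphopeptide from an anti-phosphotyrosine antibody. IC50 came from a variable-slope sigmoidal fit of triplicates.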

T1 sequence (Q16620 32-822): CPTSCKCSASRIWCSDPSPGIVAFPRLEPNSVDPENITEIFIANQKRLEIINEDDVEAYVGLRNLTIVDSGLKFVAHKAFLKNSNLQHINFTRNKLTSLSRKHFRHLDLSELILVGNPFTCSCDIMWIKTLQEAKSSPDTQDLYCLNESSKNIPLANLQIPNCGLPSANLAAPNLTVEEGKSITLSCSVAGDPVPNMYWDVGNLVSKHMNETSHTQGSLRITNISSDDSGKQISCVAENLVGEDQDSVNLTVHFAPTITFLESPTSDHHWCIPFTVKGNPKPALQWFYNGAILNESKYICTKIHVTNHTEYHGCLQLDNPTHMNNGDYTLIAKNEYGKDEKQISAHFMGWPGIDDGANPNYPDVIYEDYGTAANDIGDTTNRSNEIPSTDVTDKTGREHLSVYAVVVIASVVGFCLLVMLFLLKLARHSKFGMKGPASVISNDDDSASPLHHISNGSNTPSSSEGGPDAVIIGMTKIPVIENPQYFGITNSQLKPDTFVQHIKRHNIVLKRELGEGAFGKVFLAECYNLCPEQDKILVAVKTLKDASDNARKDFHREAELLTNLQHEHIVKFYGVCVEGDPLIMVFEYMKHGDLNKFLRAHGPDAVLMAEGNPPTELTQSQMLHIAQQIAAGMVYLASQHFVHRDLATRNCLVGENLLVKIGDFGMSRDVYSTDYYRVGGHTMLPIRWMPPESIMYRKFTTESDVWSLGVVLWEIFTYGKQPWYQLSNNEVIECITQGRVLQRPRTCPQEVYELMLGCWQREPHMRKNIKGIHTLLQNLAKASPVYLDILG

IC50 | SMILES
0.3 µM | CC(C)Oc1ccc(NC(=O)N2CCC(c3ncnc4ccc(OCCCN5CCCC5=O)cc34)CC2)cc1 [Compound 101, 4-{6-[3-(2-Oxo-pyrrolidin-1-yl)-propoxy]-quinazolin-4-yl}-piperidine-1-carboxylic acid (4-isopropoxy-phenyl)-amide]
0.2 µM | CC(C)Oc1ccc(NC(=O)N2CCC(c3ncnc4cc(NCCCN5CCN(C)CC5)ccc34)CC2)cc1 [Compound 102, 4-{7-[3-(4-Methyl-piperazin-1-yl)-propylamino]-quinazolin-4-yl}-piperidine-1-carboxylic acid (4-isopropoxy-phenyl)-amide]
0.2 µM | CC(C)Oc1ccc(NC(=O)N2CCC(c3ncnc4cc(N5CCN(C)CC5)ccc34)CC2)cc1 [Compound 103, 4-[7-(4-Methyl-piperazin-1-yl)-quinazolin-4-yl]-piperidine-1-carboxylic acid (4-isopropoxy-phenyl)-amide]
0.8 µM | CN1CCN(CCCOc2ccc3c(C4CCN(C(=O)Nc5ccc(N6CCCC6)nc5)CC4)ncnc3c2)CC1 [Compound 104, 4-{7-[3-(4-Methyl-piperazin-1-yl)-propoxy]-quinazolin-4-yl}-piperidine-1-carboxylic acid (6-pyrrolidin-1-yl-pyridin-3-yl)-amide]
0.2 µM | CN1CCN(CCCOc2ccc3c(C4CCN(C(=O)Nc5cnc(N6CCCC6)nc5)CC4)ncnc3c2)CC1 [Compound 105, 4-{7-[3-(4-Methyl-piperazin-1-yl)-propoxy]-quinazolin-4-yl}-piperidine-1-carboxylic acid (2-pyrrolidin-1-yl-pyrimidin-5-yl)-amide]
16.3 µM | CN1CCN(CCCOc2ccc3c(C4CCN(C(=S)Nc5ccc(N6CCOCC6)nc5)CC4)ncnc3c2)CC1 [Compound 106, 4-{7-[3-(4-Methyl-piperazin-1-yl)-propoxy]-quinazolin-4-yl}-piperidine-1-carbothioic acid (6-morpholin-4-yl-pyridin-3-yl)-amide]
5.4 µM | CN1CCC(COc2ccc3c(C4CCN(C(=O)Nc5ccc(N6CCOCC6)nc5)CC4)ncnc3c2)CC1 [Compound 108, 4-[7-(1-Methyl-piperidin-4-ylmethoxy)-quinazolin-4-yl]-piperidine-1-carboxylic acid (6-morpholin-4-yl-pyridin-3-yl)-amide]
8.9 µM | CN1CCC(COc2ccc3c(C4CCN(C(=O)Nc5ccc(N6CCCC6)cc5)CC4)ncnc3c2)CC1 [Compound 109, 4-[7-(1-Methyl-piperidin-4-ylmethoxy)-quinazolin-4-yl]-piperidine-1-carboxylic acid (4-pyrrolidin-1-yl-phenyl)-amide]
15 µM | O=C(Nc1ccc(N2CCOCC2)nc1)N1CCC(c2ncnc3cc(OCCCn4cnnc4)ccc23)CC1 [Compound 110, 4-[7-(3-[1,2,4]Triazol-4-yl-propoxy)-quinazolin-4-yl]-piperidine-1-carboxylic acid (6-morpholin-4-yl-pyridin-3-yl)-amide]
> 20 µM | CN(C)c1c(NCCCOc2ccc3c(C4CCN(C(=O)Nc5ccc(N6CCCC6)nc5)CC4)ncnc3c2)c(=O)c1=O [Compound 111, 4-{7-[3-(2-Dimethylamino-3,4-dioxo-cyclobut-1-enylamino)-propoxy]-quinazolin-4-yl}-piperidine-1-carboxylic acid (6-pyrrolidin-1-yl-pyridin-3-yl)-amide]
11.5 µM | O=C(NCCCOc1ccc2c(C3CCN(C(=O)Nc4ccc(N5CCOCC5)nc4)CC3)ncnc2c1)N1CCOCC1 [Compound 113, Morpholine-4-carboxylic acid (3-{4-[1-(6-morpholin-4-yl-pyridin-3-ylcarbamoyl)-piperidin-4-yl]-quinazolin-7-yloxy}-propyl)-amide]
> 20 µM | CCN1CCN(CCCOc2ccc3c(C4CCN(C(=O)Nc5ccc(N6CCOCC6)cc5)CC4)ncnc3c2)CC1 [Compound 115, 4-{7-[3-(4-Ethyl-piperazin-1-yl)-propoxy]-quinazolin-4-yl}-piperidine-1-carboxylic acid (4-morpholin-4-yl-phenyl)-amide]
> 20 µM | CC(=O)N1CCN(CCCOc2ccc3c(C4CCN(C(=O)Nc5ccc(N6CCOCC6)cc5)CC4)ncnc3c2)CC1 [Compound 117, 4-{7-[3-(4-Acetyl-piperazin-1-yl)-propoxy]-quinazolin-4-yl}-piperidine-1-carboxylic acid (4-morpholin-4-yl-phenyl)-amide]
14.6 µM | CS(=O)(=O)N1CCN(CCCOc2ccc3c(C4CCN(C(=O)Nc5ccc(N6CCOCC6)cc5)CC4)ncnc3c2)CC1 [Compound 118, 4-{7-[3-(4-Methanesulfonyl-piperazin-1-yl)-propoxy]-quinazolin-4-yl}-piperidine-1-carboxylic acid (4-morpholin-4-yl-phenyl)-amide]
> 20 µM | O=C(Nc1ccc(N2CCOCC2)cc1)N1CCC(c2ncnc3cc(OCCCN4CCC[C@H]4CO)ccc23)CC1 [Compound 119, (S)-4-{7-[3-(2-Hydroxymethyl-pyrrolidin-1-yl)-propoxy]-quinazolin-4-yl}-piperidine-1-carboxylic acid (4-morpholin-4-yl-phenyl)-amide]
16.7 µM | CN(C)C(=O)N1CCN(CCCOc2ccc3c(C4CCN(C(=O)Nc5ccc(N6CCOCC6)cc5)CC4)ncnc3c2)CC1 [Compound 120, 4-(3-{4-[1-(4-Morpholin-4-yl-phenylcarbamoyl)-piperidin-4-yl]-quinazolin-7-yloxy}-propyl)-piperazine-1-carboxylic acid dimethylamide]
0.13 µM | CC(C)Oc1ccc(NC(=O)N2CCC(c3ncnc4cc(OCCCOS(C)(=O)=O)ccc34)CC2)cc1 [Compound 121, Methanesulfonic acid 3-{4-[1-(4-isopropoxy-phenylcarbamoyl)-piperidin-4-yl]-quinazolin-7-yloxy}-propyl ester]
18.9 µM | CS(=O)(=O)OCCCOc1ccc2c(C3CCN(C(=O)Nc4ccc(N5CCOCC5)cc4)CC3)ncnc2c1 [Compound 122, Methanesulfonic acid 3-{4-[1-(4-morpholin-4-yl-phenylcarbamoyl)-piperidin-4-yl]-quinazolin-7-yloxy}-propyl ester]
> 20 µM | O=C(Nc1ccc(N2CCOCC2)cc1)N1CCC(c2ncnc3cc(OCCCN4CCNCC4)ccc23)CC1 [Compound 123, 4-[7-(3-piperazin-1-yl-propoxy)-quinazolin-4-yl]-piperidine-1-carboxylic acid (4-morpholin-4-yl-phenyl)-amide]
> 20 µM | O=C(Nc1ccc(N2CCOCC2)cc1)N1CCC(c2ncnc3cc(OCCCN4CCCC4)ccc23)CC1 [Compound 124, 4-[7-(3-Pyrrolidin-1-yl-propoxy)-quinazolin-4-yl]-piperidine-1-carboxylic acid (4-morpholin-4-yl-phenyl)-amide]
> 20 µM | CN1CCCN(CCCOc2ccc3c(C4CCN(C(=O)Nc5ccc(N6CCOCC6)cc5)CC4)ncnc3c2)CC1 [Compound 125, 4-{7-[3-(4-Methyl-[1,4]diazepan-1-yl)-propoxy]-quinazolin-4-yl}-piperidine-1-carboxylic acid (4-morpholin-4-yl-phenyl)-amide]

SMILES | IC50
CN1CCC(COc2ccc3c(C4CCN(C(=O)Nc5ccc(OC6CCC6)nc5)CC4)ncnc3c2)CC1 [Compound 107, 4-[7-(1-Methyl-piperidin-4-ylmethoxy)-quinazolin-4-yl]-piperidine-1-carboxylic acid (6-cyclobutoxy-pyridin-3-yl)-amide] | 0.2 µM
